Source: US12077503B2, “Substituted cyclic amides and their use as herbicides” (FMC CORPORATION, priority 2015, dated 2024)

Columns and labels:
Format in all cases: in vivo
[1] = test system: redroot pigweed (Amaranthus retroflexus); assay: Test G Post-Emergence Protocol; conditions: Amaranthus retroflexus, post-emergence, 312 h, read-out: Pigweed, Redroot damage rating
Method in brief: (§1)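 Scores run 0 (no damage) to 100 (total damage) and were taken 13 days after spraying. Plants had been raised in pots for 8 days under glasshouse control (24/16 °C, 14 h photoperiod, 65% humidity) and then treated at 15.625, 62.5 or 250 g/ha.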

corn (Zea mays) [2] = assay: Test G Post-Emergence Protocol; conditions: Zea mays, post-emergence, 312 h, read-out: Corn damage rating
Method in brief: as §1

[3] = test system: giant foxtail (Setaria faberi); assay: Test G Post-Emergence Protocol; conditions: Setaria faberi, post-emergence, 312 h, read-out: Foxtail, Giant damage rating
Method in brief: as §1

[4] = test system: ivy-leaved morning glory (Ipomoea hederacea); assay: Test G Post-Emergence Protocol; conditions: Ipomoea, post-emergence, 312 h, read-out: Morningglory, Ivy-leaved damage rating
Method in brief: as §1

[5] = test system: velvetleaf (Abutilon theophrasti); assay: Test G Post-Emergence Protocol; conditions: Abutilon theophrasti, post-emergence, 312 h, read-out: Velvetleaf damage rating
Method in brief: as §1

[6] = test system: barnyardgrass (Echinochloa crus-galli); assay: Test G Post-Emergence Protocol; conditions: Echinochloa crus-galli, post-emergence, 312 h, read-out: Barnyardgrass damage rating
Method in brief: as §1

[7] = test system: redroot pigweed (Amaranthus retroflexus); assay: Test G Pre-Emergence Protocol; conditions: Amaranthus retroflexus, pre-emergence, 312 h, evaluated after 13 days
Method in brief: (§2)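 Scores are visual damage ratings from 0 (no damage) to 100 (total plant kill), taken 13 days after treatment. Compound was sprayed one day post-sowing at 15.625, 62.5 or 250 g/ha in 50:50 acetone/water with 0.5% Tween 20.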

corn (Zea mays) [8] = assay: Test G Pre-Emergence Protocol; conditions: Zea mays, pre-emergence, 312 h, evaluated after 13 days
Method in brief: as §2

[9] = test system: giant foxtail (Setaria faberi); assay: Test G Pre-Emergence Protocol; conditions: Setaria faberi, pre-emergence, 312 h, evaluated after 13 days
Method in brief: as §2

[10] = test system: ivy-leaved morning glory (Ipomoea hederacea); assay: Test G Pre-Emergence Protocol; conditions: Ipomoea, pre-emergence, 312 h, evaluated after 13 days
Method in brief: as §2

[11] = test system: velvetleaf (Abutilon theophrasti); assay: Test G Pre-Emergence Protocol; conditions: Abutilon theophrasti, pre-emergence, 312 h, evaluated after 13 days
Method in brief: as §2

[12] = test system: barnyardgrass (Echinochloa crus-galli); assay: Test G Pre-Emergence Protocol; conditions: Echinochloa crus-galli, pre-emergence, 312 h, evaluated after 13 days
Method in brief: as §2

[13] = 15.625 g ai/ha, evaluated after 13 days (100=total damage to plant; 0=no damage to plant)
[14] = 62.5 g ai/ha, evaluated after 13 days, 100=total damage to plant, 0=no damage to plant
[15] = 250 g ai/ha, evaluated after 13 days, 100=total damage to plant, 0=no damage to plant

Work on `CN1C[C@H](c2ccc(C(F)F)cc2)[C@@H](C(=O)Nc2cccc(F)c2F)C1=O` (racemic) [Compound 1728] yielded a pest or weed control at 15.625 g/ha [1, 13] of 20%, a pest or weed control at 62.5 g/ha [1, 14] of 0% and a pest or weed control at 250 g/ha [1, 15] of 80%. For the same compound, the plant injury at 15.625 g/ha (corn (Zea mays) [2]; [13]) was 60%, the plant injury at 62.5 g/ha (corn (Zea mays) [2]; [14]) was 60% and the plant injury at 250 g/ha (corn (Zea mays) [2]; [15]) was 80%. The pest or weed control at 15.625 g/ha [3, 13] was 80%, the pest or weed control at 62.5 g/ha [3, 14] was 80% and the pest or weed control at 250 g/ha [3, 15] was 80%. It also gave a pest or weed control at 15.625 g/ha [4, 13] of 0%, a pest or weed control at 62.5 g/ha [4, 14] of 20% and a pest or weed control at 250 g/ha [4, 15] of 70%. The pest or weed control at 15.625 g/ha [5, 13] was 30%, the pest or weed control at 62.5 g/ha [5, 14] was 30% and the pest or weed control at 250 g/ha [5, 15] was 60%. It also gave a pest or weed control at 15.625 g/ha [6, 13] of 70%, a pest or weed control at 62.5 g/ha [6, 14] of 80% and a pest or weed control at 250 g/ha [6, 15] of 80%. For the same compound, the pest or weed control at 15.625 g/ha ([7]; 15.625 g ai/ha, read-out: Pigweed, Redroot damage rating (100=total damage to plant; 0=no damage to plant)) was 30%, the pest or weed control at 62.5 g/ha ([7]; 62.5 g ai/ha, 100=total damage to plant, 0=no damage to plant, read-out: Pigweed, Redroot damage rating) was 80% and the pest or weed control at 250 g/ha ([7]; 250 g ai/ha, read-out: Pigweed, Redroot damage rating (100=total damage to plant; 0=no damage to plant)) was 80%. The plant injury at 15.625 g/ha (corn (Zea mays) [8]; 15.625 g ai/ha, read-out: Corn damage rating (100=total damage to plant; 0=no damage to plant)) was 30%, the plant injury at 62.5 g/ha (corn (Zea mays) [8]; 62.5 g ai/ha, 100=total damage to plant, 0=no damage to plant, read-out: Corn damage rating) was 80% and the plant injury at 250 g/ha (corn (Zea mays) [8]; 250 g ai/ha, read-out: Corn damage rating (100=total damage to plant; 0=no damage to plant)) was 80%. For the same compound, the pest or weed control at 15.625 g/ha ([9]; 15.625 g ai/ha, read-out: Foxtail, Giant damage rating (100=total damage to plant; 0=no damage to plant)) was 80%, the pest or weed control at 62.5 g/ha ([9]; 62.5 g ai/ha, 100=total damage to plant, 0=no damage to plant, read-out: Foxtail, Giant damage rating) was 90% and the pest or weed control at 250 g/ha ([9]; 250 g ai/ha, read-out: Foxtail, Giant damage rating (100=total damage to plant; 0=no damage to plant)) was 90%. It also gave a pest or weed control at 15.625 g/ha ([10]; 15.625 g ai/ha, read-out: Morningglory, Ivy-leaved damage rating (100=total damage to plant; 0=no damage to plant)) of 0%, a pest or weed control at 62.5 g/ha ([10]; 62.5 g ai/ha, 100=total damage to plant, 0=no damage to plant, read-out: Morningglory, Ivy-leaved damage rating) of 30% and a pest or weed control at 250 g/ha ([10]; 250 g ai/ha, read-out: Morningglory, Ivy-leaved damage rating (100=total damage to plant; 0=no damage to plant)) of 80%. The pest or weed control at 15.625 g/ha ([11]; 15.625 g ai/ha, read-out: Velvetleaf damage rating (100=total damage to plant; 0=no damage to plant)) was 40%, the pest or weed control at 62.5 g/ha ([11]; 62.5 g ai/ha, 100=total damage to plant, 0=no damage to plant, read-out: Velvetleaf damage rating) was 60% and the pest or weed control at 250 g/ha ([11]; 250 g ai/ha, read-out: Velvetleaf damage rating (100=total damage to plant; 0=no damage to plant)) was 80%. For the same compound, the pest or weed control at 15.625 g/ha ([12]; 15.625 g ai/ha, read-out: Barnyardgrass damage rating (100=total damage to plant; 0=no damage to plant)) was 70%, the pest or weed control at 62.5 g/ha ([12]; 62.5 g ai/ha, 100=total damage to plant, 0=no damage to plant, read-out: Barnyardgrass damage rating) was 90% and the pest or weed control at 250 g/ha ([12]; 250 g ai/ha, read-out: Barnyardgrass damage rating (100=total damage to plant; 0=no damage to plant)) was 90%.
